From patent US20250325520A1, “Methods for Targeting Cancer Cells Using Amino Acids” (University of Denver, priority 2024, published 2025)

Legend:
[1] = system: PANC-1 subcutaneous pancreatic tumor; assay: Subcutaneous PANC-1 xenograft in nude mice; format: in vivo; settings: AA oral gavage daily, GEM intraperitoneal twice a week, n=5, FIG. 32
Method: In particular, the xenograft model was established with six to eight-week-old male nude mice (J:NU-Foxn1nu) purchased from The Jackson Laboratory (Bar Harbor, ME). […] The pancreatic cancer tumor was injected subcutaneously into the left flank of each mouse with 4×10^6 PANC-1 cells suspended in 100 μl of serum-free media with 50% […] ® matrix to establish a subcutaneous pancreatic tumor.
Mice were observed three times daily for the first seven days and tumor xenograft was confirmed by the presence of the tumor. […] Tumor volume and mice weight were measured every fifth day. Tumor volume was established by measuring length and width; the volume formula used was the modified ellipsoid volume formula (½ length×width 2).
For AA and control groups, treatment was given by oral gavage. AA treatment was made from a combination of histidine (44 mg/ml) and isoleucine (22 mg/ml) dissolved in PBS. For the two groups with AA, oral gavage treatment was administered daily with 200 μl AA treatment using a 20 ga polypropylene feeding tube attached to a syringe. For the control group, oral gavage treatment was administered using the same method except with 200 μl PBS. For the GEM and AA+GEM groups, GEM was given by intraperitoneal injection. GEM groups were injected twice a week with 200 μl of GEM (15 mg/ml) dissolved in PBS. All treatments were administered for sixty days. […]

[2] = system: PANC-1 and MIA PaCa-2 (malignant pancreas epithelial) cells; assay: Cell viability / cytotoxicity (CCK-8) on PDAC tumor cells; format: cell-based, human; settings: for cytotoxic efficacy on tumor cells / viability dose response of tumor cells: individual amino acid, 48 hours, FIGS. 7, 8
Method: (§1) Malignant pancreatic cell lines (PANC-1 and MIA PaCa-2) and nonmalignant human pancreas cell line (HPNE) were obtained from the American Type Culture Collection (Manassas, Virginia). The cells were cultured in DMEM medium (HYCLONE™ sera, available from GE Healthcare Life Sciences) with HPNE cells having 0.1 ng/ml EGF (Novus Biologicals, USA) included. All cultures were supplemented with 10% fetal bovine serum (FBS, Life Technology, Thermo Fisher Scientific Inc.), penicillin (1 U), and streptomycin (1 μg/ml). All cells were maintained in a humidified incubator with 5% CO2 at 37° C. All cell lines were cultured in triplicate under the same conditions, then harvested to collect independent exosome samples. Cells were seeded in 96-well plates at a density of 10^4 cells/well. After 24 hours, culture medium with increasing concentrations of treatment was added to the treatment group for 48 hours. Cell viability was accessed by Cell Counting Kit-8 (CCK-8; Dojindo Laboratories) following the manufacturer's instructions. Briefly, a mixture of 10 μl of CCK-8 and 190 μl media was added into each well and the cells were incubated for another 1 hour. The absorbance of each well was measured at 450 nm using a microplate reader. Each experiment was repeated six times.

[3] = pH change of the media caused by amino acid addition; format: physicochemical; settings: culture media, FIG. 6
[4] = system: hTert-HPNE (nonmalignant pancreas epithelial) cells; assay: Cell viability / cytotoxicity (CCK-8) on nontumor cells; format: cell-based, human; settings: individual amino acid, 48 hours, FIGS. 7, 8
Method: as §1

pH change caused by amino acid addition [3]	Compound	antitumor efficacy (tumor volume) [1]	time-dependent cytotoxicity to tumor cells ([2]; AA compared with GEM, FIG. 13)	cytotoxic efficacy on tumor cells [2]	viability dose response of tumor cells [2]	cell viability of nontumor cells [4]
–	Nc1ccn([C@@H]2O[C@H](CO)[C@@H](O)C2(F)F)c(=O)n1 [GEM, gemcitabine, reference compound]	showed antitumor efficacy	faster efficacy and is more tumoricidal effective	–	–	–
significant pH change	N[C@@H](CS)C(=O)O [cysteine, reference compound]	–	–	–	–	–
trivial impact	N[C@@H](Cc1c[nH]cn1)C(=O)O [histidine]	–	–	selective cytotoxic efficacy	monotonic dose response	no significant difference in cell viability
trivial impact	CC[C@H](C)[C@H](N)C(=O)O [isoleucine]	–	–	selective cytotoxic efficacy	monotonic dose response	no significant difference in cell viability

Compound	pH change caused by amino acid addition [3]	antitumor efficacy (tumor volume) [1]	time-dependent cytotoxicity to tumor cells ([2]; AA compared with GEM, FIG. 13)	cytotoxic efficacy on tumor cells [2]	viability dose response of tumor cells [2]	cell viability of nontumor cells [4]
N=C(N)NCCC[C@H](N)C(=O)O [arginine, reference compound]	significant pH change	–	–	–	–	–
